In data set [1] the test system is Human umbilical endothelial cells (HUVEC). The data set can be described thus: Inhibition of VEGF165-stimulated HUVEC proliferation (3H-thymidine incorporation). Particulars: Homo sapiens; HUVEC proliferation stimulated with 5 ng/ml VEGF165 and 10 μg/ml heparin; 76 h incubation + 16 h 3H-thymidine. The format is cell-based. As for the experimental part:
Human umbilical endothelial cells (HUVEC) were cultivated in IMDM (Gibco BRL), supplemented with 10% foetal calf serum (FBS) (Sigma), 50 μM of β-mercaptoethanol (Fluka), standard antibiotics, 15 μg/ml of endothelial cell growth factor (ECGS, Collaborative Biomedical Products) and 100 μg/ml of heparin (Sigma) on gelatine-coated culture dishes (0.2% gelatine, Sigma) at 37° C., under 5% CO2 in a water-saturated atmosphere.
In order to investigate the inhibitory activity of the compounds according to the invention the cells were “starved” for 16 hours, i.e. kept in culture medium without growth factors (ECGS+heparin). The cells were detached from the culture dishes using trypsin/EDTA and washed once in serum-containing medium. Then they were seeded out in amounts of 2.5×10^3 cells per well.
The proliferation of the cells was stimulated with 5 ng/ml of VEGF165 (vascular endothelial growth factor; H. Weich, GBF Braunschweig) and 10 μg/ml of heparin. As a control, 6 wells in each dish were not stimulated.
The compounds according to the invention were dissolved in 100% dimethylsulphoxide and added to the cultures in various dilutions as triple measurements, the maximum dimethylsulphoxide concentration being 0.3%.
The cells were incubated for 76 hours at 37° C., then for a further 16 hours ^3H-thymidine (0.1 μCi/well, Amersham) was added in order to determine the DNA synthesis. Then the radioactively labelled cells were immobilised on filter mats and the radioactivity incorporated was measured in a β-counter. In order to determine the inhibitory activity of the compounds according to the invention the mean value of the non-stimulated cells was subtracted from the mean value of the factor-stimulated cells (in the presence or absence of the compounds according to the invention).
The relative cell proliferation was calculated as a percentage of the control (HUVEC without inhibitor) and the concentration of active substance which inhibits the proliferation of the cells by 50% (IC50) was determined.

Structures are written as SMILES. Counter-ions that a name gives are not always drawn.

The values that follow come from US7148249B2, “Indolinones substituted by heterocycles, the preparation thereof and their use as medicaments” (Boehringer Ingelheim Pharma GmbH & Co. KG, priority 2002, dated 2006).

As to `CN(C)CC(=O)N(C)c1ccc(N/C(=C2\C(=O)Nc3cc(Cl)ccc32)c2ccc3c(c2)ncn3C)cc1` [(ak), 3-(Z)-{1-(4-[N-methyl-N-(dimethylaminomethylcarbonyl)-amino]-phenylamino)-1-(1-methyl-benzimidazol-5-yl)-methylene}-6-chloro-2-indolinone], the melting point (as a rule, the temperature of the solid-liquid transition) came to 270 °C. The IC50 (commonly the concentration that inhibits the measured activity by half) in data set [1] was determined as 30 nM.

`CN1CCC(N/C(=C2\C(=O)Nc3ccccc32)c2ccoc2)CC1` [Example 6.0, 3-(Z)-[1-(1-methylpiperidin-4-ylamino)-1-(3-furyl)-methylene]-2-indolinone] displayed a melting point of 255 to 260 °C.

Consider `CCNCc1ccc(N/C(=C2\C(=O)Nc3cc(C(=O)OC)ccc32)c2ccc3c(c2)OCCO3)cc1` [(u), 3-(Z)-{1-(4-[ethylamino-methyl]-phenylamino)-1-(3,4-ethylenedioxyphenyl)-methylene}-6-methoxycarbonyl-2-indolinone], for which the melting point was found to be 266 °C. Further, the IC50 in data set [1] turned out to be 0.8 nM.

Regarding `CCNCc1ccc(N/C(=C2\C(=O)Nc3cc(F)ccc32)c2ccc3c(c2)OCCO3)cc1` [(l), 3-(Z)-{1-[4-(ethylaminomethyl)-phenylamino]-1-(3,4-ethylenedioxyphenyl)-methylene}-6-fluoro-2-indolinone], the melting point fell in the range of 153 to 154 °C. Moreover, the IC50 in data set [1] was found to be 10 nM.

Consider `COC(=O)c1ccc2c(c1)NC(=O)/C2=C(\Nc1ccc(CN2CCN(C)CC2)cc1)c1ccc2c(c1)OCCO2` [(v), 3-(Z)-{1-(4-[4-methylpiperazin-1-yl-methyl]-phenylamino)-1-(3,4-ethylenedioxy-phenyl)-methylene}-6-methoxycarbonyl-2-indolinone], for which the melting point lay within 271 to 273 °C. Also, in data set [1], the IC50 was determined as 1 nM.

For `CN(C)Cc1ccc(N/C(=C2\C(=O)Nc3cc(Cl)ccc32)c2ccc3c(c2)ncn3C)cc1` [(f), 3-(Z)-{1-[4-(dimethylaminomethyl)-phenylamino]-1-(1-methyl-benzimidazol-5-yl)-methylene}-6-chloro-2-indolinone], the melting point is 288 °C (dec.). The IC50 in data set [1] was determined as 2 nM.

`CCNCc1ccc(N/C(=C2\C(=O)Nc3cc(F)ccc32)c2ccc3c(c2)ncn3C)cc1` (as salt: salt) [Example 11, 6-fluoro-3-(Z)-{1-[4-(ethylaminomethyl)-phenylamino]-1-(1-methylbenzimidazol-5-yl)-methylene}-2-indolinone]: the melting point lay within 226 to 228 °C.

In the case of `CN(C)CC(=O)N(C)c1ccc(N/C(=C2\C(=O)Nc3ccccc32)c2cnccn2)cc1` [Example 2.0, 3-(Z)-{1-[4-(N-dimethylaminomethylcarbonyl-N-methyl-amino)-phenylamino]-1-(2-pyrazinyl)-methylene}-2-indolinone], the melting point lay within 198 to 199 °C.

As to `CCC(=O)N(CCCN(C)C)c1ccc(N/C(=C2\C(=O)Nc3ccccc32)c2coc(N(Cc3ccccc3)Cc3ccccc3)n2)cc1` [Example 1.0, 3-(Z)-[1-{4-[N-propionyl-N-(3-dimethylamino-propyl)-amino]-phenylamino}-1-(2-dibenzylamino-4-oxazolyl)-methylene]-2-indolinone], the melting point fell in the range of 204 to 205 °C.

`CN(C)CC(=O)N(C)c1ccc(N/C(=C2\C(=O)Nc3ccccc32)c2ccc3c(c2)OCO3)cc1` [(aj), 3-(Z)-{1-(4-[N-methyl-N-(dimethylaminomethylcarbonyl)-amino]-phenylamino)-1-(3,4-methylenedioxyphenyl)-methylene}-2-indolinone] came in with a melting point of 221 to 222 °C. For the same molecule, the IC50 in data set [1] was found to be 13 nM.

Regarding `CCNCc1ccc(N/C(=C2\C(=O)Nc3cc(Cl)ccc32)c2ccc3c(c2)OCO3)cc1` (as salt: salt) [Example 8.0, 6-chloro-3-(Z)-{1-[4-(ethylaminomethyl)-phenylamino]-1-(3,4-methylenedioxyphenyl)-methylene}-2-indolinone], the melting point was 248 to 250 °C.

In turn, `O=C1Nc2cc(Cl)ccc2/C1=C(/Nc1ccc(CN2CCCC2)cc1)c1ccc2nc[nH]c2c1` [(ai), 3-(Z)-{1-[4-(pyrrolidin-1-yl-methyl)-phenylamino]-1-(benzimidazol-5-yl)-methylene}-6-chloro-2-indolinone] came in with a melting point of 277 to 279 °C. Also, in data set [1], the concentration for half-maximal inhibition (IC50) was 3 nM.

On to `Cc1nc2ccc(/C(Nc3ccc(CN4CCCC4)cc3)=C3/C(=O)Nc4cc(Cl)ccc43)cc2[nH]1` [(ay), 3-(Z)-{1-[4-(pyrrolidin-1-yl-methyl)-phenylamino]-1-(2-methyl-benzimidazol-5-yl)-methylene}-6-chloro-2-indolinone], for which the melting point is 295 to 297 °C (dec.). Also, the IC50 in data set [1] was 19 nM.

Molecule `CN(C)CC(=O)N(C)c1ccc(N/C(=C2\C(=O)Nc3cc(Cl)ccc32)c2ccncc2)cc1` [Example 3.0, 6-Chloro-3-(Z)-[1-(4-{N-(dimethylaminomethylcarbonyl)-N-methyl-amino}-phenyl-amino)-1-(4-pyridyl)-methylene]-2-indolinone] came in with a melting point of 274 to 276 °C.

`CNC(=O)c1ccc2c(c1)NC(=O)/C2=C(\Nc1ccc(CN2CCN(C)CC2)cc1)c1ccc2c(c1)OCCO2` [Example 10.0, 6-methylaminocarbonyl-3-(Z)-{1-[4-(1-methylpiperazin-4-yl-methyl)-phenylamino]-1-(3,4-ethylenedioxyphenyl)-methylene}-2-indolinone] gave a melting point of 172 °C.

Take `CN1CCN(Cc2ccc(N/C(=C3\C(=O)Nc4cc(C(=O)N(C)C)ccc43)c3ccc4c(c3)OCCO4)cc2)CC1` [(ah), 3-(Z)-{1-(4-[1-methyl-piperazin-4-yl-methyl]-phenylamino)-1-(3,4-ethylenedioxy-phenyl)-methylene}-6-dimethylaminocarbonyl-2-indolinone]: in data set [1], the IC50 was 100 nM.

For the molecule `CN(C)CCN(C)S(=O)(=O)c1ccc(N/C(=C2\C(=O)Nc3cc(F)ccc32)c2ccc3c(c2)ncn3C)cc1` [(au), 3-(Z)-{1-[4-(N-methyl-N-{2-dimethylamino-ethyl}-aminosulphonyl)-phenylamino]-1-(1-methyl-benzimidazol-5-yl)-methylene}-6-fluoro-2-indolinone], the IC50 in data set [1] came to 13 nM.

Regarding `CC(=O)N(CCN(C)C)c1ccc(N/C(=C2\C(=O)Nc3cc(F)ccc32)c2ccc3c(c2)OCCO3)cc1` [(k), 3-(Z)-{1-(4-[N-acetyl-N-(2-dimethylaminoethyl)-amino]-phenylamino)-1-(3,4-ethylenedioxyphenyl)-methylene}-6-fluoro-2-indolinone], the IC50 in data set [1] was found to be 0.7 nM.

Turning to `COC(=O)c1ccc2c(c1)NC(=O)/C2=C(\Nc1ccc(C(=O)N(C)CCN(C)C)cc1)c1ccc2c(c1)OCCO2` [(ad), 3-(Z)-{1-(4-[N-methyl-N-(2-dimethylaminoethyl)aminocarbonyl]-phenylamino)-1-(3,4-ethylenedioxyphenyl)-methylene}-6-methoxycarbonyl-2-indolinone], the IC50 in data set [1] is 0.4 nM.

For `COC(=O)c1ccc2c(c1)NC(=O)/C2=C(\Nc1ccc(N(CCN(C)C)S(C)(=O)=O)cc1)c1ccc2c(c1)OCCO2` [(r), 3-(Z)-{1-(4-[N-methanesulphonyl-N-(2-dimethylaminoethyl)-amino]-phenylamino)-1-(3,4-ethylenedioxyphenyl)-methylene}-6-methoxycarbonyl-2-indolinone], the IC50 in data set [1] came out at 0.2 nM.

Regarding `Cc1cc(C)n(-c2ccc(N/C(=C3\C(=O)Nc4cc(F)ccc43)c3ccc4c(c3)ncn4C)cc2)n1` [(at), 3-(Z)-{1-[4-(3,5-dimethyl-pyrazol-1-yl)-phenylamino]-1-(1-methyl-benzimidazol-5-yl)-methylene}-6-fluoro-2-indolinone], the IC50 in data set [1] was 30 nM.

Turning to `COC(=O)c1ccc2c(c1)NC(=O)/C2=C(\Nc1ccc(N(C)C(=O)CN2CCN(C)CC2)cc1)c1ccc2c(c1)OCCO2` [(j), 3-(Z)-{1-(4-[N-methyl-N-(4-methylpiperazin-1-yl-methylcarbonyl)-amino]-phenyl-amino)-1-(3,4-ethylenedioxyphenyl)-methylene}-6-methoxycarbonyl-2-indolinone], the IC50 in data set [1] came to 0.2 nM.

On to `CCC(=O)N(CCN(C)C)c1ccc(N/C(=C2\C(=O)Nc3cc(Cl)ccc32)c2ccc3c(c2)OCCO3)cc1` [(o), 3-(Z)-{1-(4-[N-propionyl-N-(2-dimethylaminoethyl)-amino]-phenylamino)-1-(3,4-ethylenedioxyphenyl)-methylene}-6-chloro-2-indolinone], for which the half-maximal inhibitory concentration (IC50) in data set [1] is 1 nM.

Consider `COC(=O)c1ccc2c(c1)NC(=O)/C2=C(\Nc1ccc(CN(C)C)cc1)c1ccc2c(c1)OCO2` [(w), 3-(Z)-{1-(4-[dimethylamino-methyl]-phenylamino)-1-(3,4-methylenedioxyphenyl)-methylene}-6-methoxycarbonyl-2-indolinone], for which, in data set [1], the IC50 was determined as 0.5 nM.
